Results as given in US10927123B2, “Modulators of the beta-3 adrenergic receptor useful for the treatment or prevention of disorders related thereto” (Arena Pharmaceuticals, Inc., priority 2016, dated 2021).

Target: Beta-3 Adrenergic Receptor (Homo sapiens (Human), UniProt P13945)
Assay: HTRF cAMP antagonist assay (IC50 determination)
Type: cell-based
Settings: CHO-K1 cells stably expressing recombinant receptor; antagonism of isoproterenol at EC90; cAMP readout
Description: HTRF cAMP assays were performed according to manufacturer's instructions (Cisbio, cAMP Dynamic 2 Assay Kit; #62AM4PEJ). CHO-K1 cells stably expressing recombinant receptor were harvested and suspended in warm PBS to make a 300,000 cells/mL stock. This cell suspension was dispensed into 384 well assay plates (PerkinElmer ProxiPlate #6008280) at 5 μL per well (1500 cells/well) along with a cAMP standard curve.
Compounds were dissolved and serially diluted (5-fold) in DMSO to generate a 10-point dose response stock. The stock was then diluted 100-fold in assay buffer (PBS containing 1 mM IBMX) before a volume of 2.5 μL was added to the cells (the final, top concentration of compound in the dose-response is typically 10 or 100 μM). After a brief incubation, 2.5 μL of isoproterenol stock, prepared at a concentration 4 times its EC90 at the receptor of interest, was added to the wells. The EC90 for isoproterenol, a beta-adrenergic agonist, was determined in separate experiments using standard methods to measure agonist potencies.
Following a 1-hour incubation at room temperature, 5 μL of cAMP-D2 Reagent diluted in Lysis Buffer was added to each well followed by 5 μL of Cryptate Reagent. Plates were further incubated at room temperature for 1 hour prior to reading. Time resolved fluorescence measurements were collected on a suitable, HTRF-capable plate reader.
Counts from the plate reader were fit to the cAMP standard curve on the assay plate in order to determine cAMP concentrations in each well, and these values were used to construct dose-response curves to obtain IC50 values.

Chain of Beta-3 Adrenergic Receptor (P13945 whole entry, species assumed): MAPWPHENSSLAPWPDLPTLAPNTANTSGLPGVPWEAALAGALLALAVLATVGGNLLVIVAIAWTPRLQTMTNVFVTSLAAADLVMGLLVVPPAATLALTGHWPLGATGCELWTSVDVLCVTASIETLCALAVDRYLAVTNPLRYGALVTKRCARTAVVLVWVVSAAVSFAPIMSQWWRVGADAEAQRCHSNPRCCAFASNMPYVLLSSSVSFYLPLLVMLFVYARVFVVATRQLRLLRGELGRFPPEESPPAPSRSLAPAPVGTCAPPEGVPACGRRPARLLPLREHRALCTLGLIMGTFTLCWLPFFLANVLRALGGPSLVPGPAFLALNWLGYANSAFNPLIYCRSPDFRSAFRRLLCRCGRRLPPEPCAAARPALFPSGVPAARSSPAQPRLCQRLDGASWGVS

Question: Which IC50 does the source give for `NCCS(=O)(=O)c1cccc(OC[C@@H](O)CNC2COC3(CCN(S(=O)(=O)c4ccc5ccccc5c4)CC3)C2)c1` (stereo partly drawn) [Compound 22, (2S)-1-(3-(2-aminoethylsulfonyl)phenoxy)-3-(8-(naphthalen-2-ylsulfonyl)-1-oxa-8-azaspiro[4.5]decan-3-ylamino)propan-2-ol] here?
Answer: 302 nM

Question: Which IC50 does the source give for `CS(=O)(=O)c1cccc(OC[C@H](O)CN[C@H]2COC3(CCN(S(=O)(=O)c4ccc5ccccc5c4)CC3)C2)c1` [Compound 23, (R)-1-(3-(methylsulfonyl)phenoxy)-3-((R)-8-(naphthalen-2-ylsulfonyl)-1-oxa-8-azaspiro[4.5]decan-3-ylamino)propan-2-ol] here?
Answer: 242 nM

Question: `O=S(=O)(c1cccc(OC[C@@H](O)CNC2COC3(CCN(S(=O)(=O)c4ccc5ccccc5c4)CC3)C2)c1)C1COC1` (stereo partly drawn) [Compound 24, (2S)-1-(8-(naphthalen-2-ylsulfonyl)-1-oxa-8-azaspiro[4.5]decan-3-ylamino)-3-(3-(oxetan-3-ylsulfonyl)phenoxy)propan-2-ol] was tested. Which IC50 did it give?
Answer: 23.6 nM

Question: Which IC50 does the source give for `CCC(C)S(=O)(=O)c1cccc(OC[C@@H](O)CNC2COC3(CCN(S(=O)(=O)c4ccc5ccccc5c4)CC3)C2)c1` (stereo partly drawn) [Compound 25, (2S)-1-(3-(sec-butylsulfonyl)phenoxy)-3-(8-(naphthalen-2-ylsulfonyl)-1-oxa-8-azaspiro[4.5]decan-3-ylamino)propan-2-ol] here?
Answer: 54.6 nM

Question: For `CCS(=O)(=O)c1cccc(OC[C@@H](O)CN[C@H]2COC3(CCN(S(=O)(=O)c4ccc5ccccc5c4)CC3)C2)c1` [Compound 26, (S)-1-(3-(ethylsulfonyl)phenoxy)-3-((R)-8-(naphthalen-2-ylsulfonyl)-1-oxa-8-azaspiro[4.5]decan-3-ylamino)propan-2-ol], which IC50 is on record?
Answer: 5.25 nM

Question: Which IC50 does the source give for `CCS(=O)(=O)c1cccc(OC[C@@H](O)CN[C@@H]2COC3(CCN(S(=O)(=O)c4ccc5ccccc5c4)CC3)C2)c1` [Compound 27, (S)-1-(3-(ethylsulfonyl)phenoxy)-3-((S)-8-(naphthalen-2-ylsulfonyl)-1-oxa-8-azaspiro[4.5]decan-3-ylamino)propan-2-ol] here?
Answer: 19.3 nM

Question: For `CS(=O)(=O)c1cccc(OC[C@@H](O)CNC2COC3(CCN(S(=O)(=O)c4ccc5c(c4)CCCO5)CC3)C2)c1` (stereo partly drawn) [Compound 28, (2S)-1-(8-(chroman-6-ylsulfonyl)-1-oxa-8-azaspiro[4.5]decan-3-ylamino)-3-(3-(methylsulfonyl)phenoxy)propan-2-ol], which IC50 is on record?
Answer: 18.5 nM

Question: With `CS(=O)(=O)c1cccc(OC[C@@H](O)CNC2COC3(CCN(S(=O)(=O)c4ccc5c(c4)CCCC5)CC3)C2)c1` (stereo partly drawn) [Compound 29, (2S)-1-(3-(methylsulfonyl)phenoxy)-3-(8-(5,6,7,8-tetrahydronaphthalen-2-ylsulfonyl)-1-oxa-8-azaspiro[4.5]decan-3-ylamino)propan-2-ol] as the compound, how does the IC50 read?
Answer: 16.1 nM

Question: Which IC50 does the source give for `CS(=O)(=O)c1cccc(OC[C@@H](O)CNC2COC3(CCN(S(=O)(=O)c4ccc(Cl)c5nonc45)CC3)C2)c1` (stereo partly drawn) [Compound 30, (2S)-1-(8-(7-chlorobenzo[c][1,2,5]oxadiazol-4-ylsulfonyl)-1-oxa-8-azaspiro[4.5]decan-3-ylamino)-3-(3-(methylsulfonyl)phenoxy)propan-2-ol] here?
Answer: 34.3 nM

Question: How did the IC50 turn out when `CS(=O)(=O)c1cccc(OC[C@@H](O)CNC2COC3(CCN(S(=O)(=O)c4cccc(Cl)c4)CC3)C2)c1` (stereo partly drawn) [Compound 31, (2S)-1-(8-(3-chlorophenylsulfonyl)-1-oxa-8-azaspiro[4.5]decan-3-ylamino)-3-(3-(methylsulfonyl)phenoxy)propan-2-ol] was run?
Answer: 49.3 nM

Question: `CN1CCOc2ccc(S(=O)(=O)N3CCC4(CC3)CC(NC[C@H](O)COc3cccc(S(C)(=O)=O)c3)CO4)cc21` (stereo partly drawn) [Compound 32, (2S)-1-(8-(4-methyl-3,4-dihydro-2H-benzo[b][1,4]oxazin-6-ylsulfonyl)-1-oxa-8-azaspiro[4.5]decan-3-ylamino)-3-(3-(methylsulfonyl)phenoxy)propan-2-ol] was tested. Which IC50 did it give?
Answer: 21.1 nM
